# Measurements as given in article PMC11022698, “Precisely Activating cGAS‐STING Pathway with a Novel Peptide‐Based Nanoagonist to Potentiate Immune Checkpoint Blockade Cancer Immunotherapy” (Advanced Science, 2024).
# Experiments:
# [1] = test system: cGAS-STING pathway; assay: Western blot of p-STING, p-TBK1 and p-IRF3 in B16F10 cells; type: cell-based; settings: 40 µM, n = 3
# Experimental: (§1) B16F10 cells were seeded in a 12-well plate at a density of 5×10^4 cells per well and […]
# (§2) with PBS, the cells were collected by centrifugation. Cytosolic mtDNA was […] using a Cell Mitochondria Isolation Kit (C3601, Beyotime, China), and the DNA was then extracted with a TIANamp Genomic DNA kit (DP304, Tiangen Biotech, China) following the manufacturer’s protocol. The mtDNA D-Loop primers were synthesized by GenePharma Biotech (detailed sequences in Table S3, Supporting Information), and then quantified with Multiplex PCR Kit (PM101, Novoprotein , Shanghai, China) using Quantitative Real-Time PCR Detection System (Bio-Rad, CFX96, USA).
# (§3) Caspase-9 and Caspase-3 Activity Assay
# (§4) The B16F10 cells were seeded into a 6-well plate at the density of 2×10^5 cells per […]
# (§5) cells were rinsed with PBS for three times and then treated with lysis buffer solution in ice bath for 1 h. Cell lysates were centrifuged at 12000 rpm for 5 min at 4 °C, and the supernatant was collected. The supernatant was incubated with caspase-9 or caspase-3 substrate at 37 °C in dark for 12 h. The activities of caspase-9 and caspase-3 were […]
# (§6) Evaluation of cGAS-STING Pathway Activation
# (§7) Western bolt was employed to evaluate the MAPN-mediated activation of cGAS-STING pathway. Briefly, B16F10 cells were first seeded into 24-well plates at 2×104 […]
# (§8) culture medium with or without H2O2 (100 μM). […]
# [2] = test system: B16F10 cells; assay: mtDNA leakage assay, immunofluorescence of dsDNA Marker and anti-TOMM20 (CLSM); type: cell-based; settings: KLA-treated B16F10 cells, n = 3
# Experimental: The endosomal escape ability of MAPN was study by analyzing the colocolization of endosomes and KLA after internalizing into cells. Briefly, B16F10 cells were seeded […]
# overnight for cell attachment. KLA was labeled with FITC. The cells were incubated […]
# H2O2 (100 μM) for 4 h. After 1 h, 3 h, and 6 h incubation, endosomes were stained with LysoTracker probe (red) according to manufacture’s instruction. The cells were then […]
# at room temperature, and counterstained with DAPI for the easy observation of cell […]
# In Vitro PD-1/PD-L1 Pathway Blockade
# MAPN-mediated PD-1/PD-L1 pathway blockade was evaluated with anti-PD-L1 (sc-518027, Santa Cruz, USA) staining. Briefly, B16F10 cells were seeded at a density […]
# at room temperature, and then stained with Alexa Fluor 594 (red) labeled anti -PD-L1 […]
# B16F10 cells were seeded at a density of 1×10^4 cells per well in 35 mm confocal dish (Ф =15 mm) and incubated overnight for cell attachment. The cells were incubated […]
# without H2O2 (100 μM) for 24 h. After washing with PBS, the cells were permeabilized, and incubated with Anti-TOMM20 antibodies (GB111481, Servicebio, China) and dsDNA Marker (sc-58749, Santa Cruz, USA) at 4 °C overnight, and then incubated with secondary antibodies for 2 h and counterstained with DAPI. All the cells were observed using a CLSM (Zeiss, Germany).
# The qPCR Quantification of Cytosolic mtDNA
# [3] = test system: B16F10 cells; assay: qRT-PCR quantification of cytosolic mtDNA; type: cell-based; settings: n = 3
# Experimental: as §1, §2, §3, §4, §5, §6, §7, §8
# [4] = test system: cGAS-STING pathway; assay: Secretion levels of cGAMP and IFN-β in B16F10 cells; type: cell-based; settings: KLA-treated B16F10 cells; n = 3
# [5] = test system: B16F10 tumor-bearing C57BL/6 mouse model; assay: Anti-tumor immune responses after i.t. or i.v. injection of AMPs; type: in vivo, C57BL/6 mice; settings: 7.5 mg kg^-1; for DCs maturation (CD80+ CD86+ CD11c+ cells) in lymph nodes: representative flow cytometric plot
# Experimental: Next, the B16F10 tumor‐bearing C57BL/6 mouse model was established to investigate whether KLA can initiate efficient anti‐tumor immune responses by activating the cGAS‐STING pathway. The KLA was administrated either through intratumoral (i.t.) or intravenous (i.v.) injection at the dose of 7.5 mg kg^−1, 17BIPHE2 and CGA‐N12 were employed as comparative groups.
substance,measurement,setting,value
KLAKLAK2 [model antimicrobial peptide that promotes mtDNA leakage by changing mitochondrial inner membrane permeability],"phosphorylation levels of STING, TBK1, and IRF3 proteins",[1],remarkably increased
same,Pearson correlation coefficient of dsDNA and mitochondria (TOMM20),[2],0.464
same,"cytosolic mtDNA level, fold over 17BIPHE2-treated cells",[3],2.41 fold
same,"cytosolic mtDNA level, fold over CGA-N12-treated cells",[3],1.87 fold
same,"IFN-β level, fold over PBS-treated cells",[4],2.03 fold
same,"cGAMP level, fold over PBS-treated cells",[4],1.85 fold
same,"DCs maturation, fold over PBS treatment","[5]; i.t. injection, n = 6",2.53 fold
same,"pro-inflammatory cytokines (IFN-β, IFN-γ, TNF-α, IL-6, IL-12) in tumor tissues compared with other groups","[5]; i.t. injection, n = 6",significantly higher levels
same,"tumor-infiltrating CD8+ T cells, fold over PBS treatment","[5]; i.t. injection, n = 6",2.36 fold
same,DCs maturation (CD80+ CD86+ CD11c+ cells) in lymph nodes,[5]; i.t. injection,31.4%
same,initiation of systemic anti-tumor immune responses,[5]; i.v. injection,weak effect
same,DCs maturation (CD80+ CD86+ CD11c+ cells) in lymph nodes,[5]; i.v. injection,17.9%
